From ChEMBL document CHEMBL5579854, “Targeting Relevant HDACs to Support the Survival of Cone Photoreceptors in Inherited Retinal Diseases: Identification of a Potent Pharmacological Tool with In Vitro and In Vivo Efficacy” (J Med Chem, 2024)
pIC50: −log10 of the molar value. ≈ marks a conversion by molar mass, not a printed value. Calls of active or inactive are those of the source. The rule behind the calls is not given here.

How the values were obtained:
[1] = Solubility of compound; assay type: physicochemical
[2] = Stability of compound at pH 7.4 measured after 24 hrs; assay type: physicochemical; details: buffer, read-out: Stability
[3] = Lipophilicity, logP of compound; assay type: physicochemical; details: octanol/water
Histone deacetylase 1 [4] = biological target: T1, Histone deacetylase 1 (Homo sapiens, UniProt Q13547); test: Inhibition of C-terminal 6xHis-tagged full-length recombinant human HDAC1 (1 to 482 residues) expressed in Sf9 insect cells using a fluorogenic substrate preincubated for 30 mins followed by substrate addition measured after 30 mins by fluorescence based assay relative to control; details: time 60.0 min
T1 sequence (Q13547 whole entry, the tested form may be a part): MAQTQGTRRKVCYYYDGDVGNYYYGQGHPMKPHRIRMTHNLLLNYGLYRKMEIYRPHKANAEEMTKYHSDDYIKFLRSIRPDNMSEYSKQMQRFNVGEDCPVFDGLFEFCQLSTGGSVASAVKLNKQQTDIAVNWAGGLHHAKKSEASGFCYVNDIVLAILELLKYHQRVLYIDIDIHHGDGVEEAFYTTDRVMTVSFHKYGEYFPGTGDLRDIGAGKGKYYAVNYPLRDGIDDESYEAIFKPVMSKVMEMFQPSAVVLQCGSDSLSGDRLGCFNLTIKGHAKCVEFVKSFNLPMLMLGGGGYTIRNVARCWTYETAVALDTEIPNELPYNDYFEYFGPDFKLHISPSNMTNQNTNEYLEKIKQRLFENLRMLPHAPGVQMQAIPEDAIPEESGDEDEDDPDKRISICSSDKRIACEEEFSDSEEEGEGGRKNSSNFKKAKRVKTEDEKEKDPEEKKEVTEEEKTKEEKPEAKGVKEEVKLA

Histone deacetylase 1 [5] = biological target: T1, Histone deacetylase 1; test: Inhibition of C-terminal 6xHis-tagged full-length recombinant human HDAC1 (1 to 482 residues) expressed in Sf9 insect cells using a fluorogenic substrate preincubated for 30 mins followed by substrate addition measured after 30 mins by fluorescence based assay
Histone deacetylase 8 = biological target: T2, Histone deacetylase 8 (Homo sapiens, UniProt Q9BY41); test: Inhibition of C-terminal His-tagged full-length recombinant human HDAC8 (1 to 377 residues) expressed in Sf9 insect cells using a fluorogenic substrate preincubated for 30 mins followed by substrate addition measured after 30 mins by fluorescence based assay
T2 sequence (Q9BY41 whole entry): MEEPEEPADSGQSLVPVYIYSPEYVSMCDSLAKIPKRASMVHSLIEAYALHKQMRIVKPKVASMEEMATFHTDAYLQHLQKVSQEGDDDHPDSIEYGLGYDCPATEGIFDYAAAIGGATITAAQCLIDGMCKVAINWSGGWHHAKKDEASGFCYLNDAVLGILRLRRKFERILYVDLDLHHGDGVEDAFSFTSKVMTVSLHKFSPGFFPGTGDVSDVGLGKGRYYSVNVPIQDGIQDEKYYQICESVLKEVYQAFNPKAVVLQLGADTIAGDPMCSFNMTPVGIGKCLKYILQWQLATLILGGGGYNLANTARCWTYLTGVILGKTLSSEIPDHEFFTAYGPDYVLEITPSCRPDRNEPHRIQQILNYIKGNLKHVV

[6] = biological target: T3, Protein deacetylase HDAC6 (Homo sapiens, UniProt Q9UBN7); test: Inhibition of C-terminal FLAG-tagged full-length recombinant human HDAC6 (1 to 1215 residues) expressed in Sf9 insect cells using a fluorogenic substrate preincubated for 30 mins followed by substrate addition measured after 30 mins by fluorescence based assay
T3 sequence (Q9UBN7 whole entry): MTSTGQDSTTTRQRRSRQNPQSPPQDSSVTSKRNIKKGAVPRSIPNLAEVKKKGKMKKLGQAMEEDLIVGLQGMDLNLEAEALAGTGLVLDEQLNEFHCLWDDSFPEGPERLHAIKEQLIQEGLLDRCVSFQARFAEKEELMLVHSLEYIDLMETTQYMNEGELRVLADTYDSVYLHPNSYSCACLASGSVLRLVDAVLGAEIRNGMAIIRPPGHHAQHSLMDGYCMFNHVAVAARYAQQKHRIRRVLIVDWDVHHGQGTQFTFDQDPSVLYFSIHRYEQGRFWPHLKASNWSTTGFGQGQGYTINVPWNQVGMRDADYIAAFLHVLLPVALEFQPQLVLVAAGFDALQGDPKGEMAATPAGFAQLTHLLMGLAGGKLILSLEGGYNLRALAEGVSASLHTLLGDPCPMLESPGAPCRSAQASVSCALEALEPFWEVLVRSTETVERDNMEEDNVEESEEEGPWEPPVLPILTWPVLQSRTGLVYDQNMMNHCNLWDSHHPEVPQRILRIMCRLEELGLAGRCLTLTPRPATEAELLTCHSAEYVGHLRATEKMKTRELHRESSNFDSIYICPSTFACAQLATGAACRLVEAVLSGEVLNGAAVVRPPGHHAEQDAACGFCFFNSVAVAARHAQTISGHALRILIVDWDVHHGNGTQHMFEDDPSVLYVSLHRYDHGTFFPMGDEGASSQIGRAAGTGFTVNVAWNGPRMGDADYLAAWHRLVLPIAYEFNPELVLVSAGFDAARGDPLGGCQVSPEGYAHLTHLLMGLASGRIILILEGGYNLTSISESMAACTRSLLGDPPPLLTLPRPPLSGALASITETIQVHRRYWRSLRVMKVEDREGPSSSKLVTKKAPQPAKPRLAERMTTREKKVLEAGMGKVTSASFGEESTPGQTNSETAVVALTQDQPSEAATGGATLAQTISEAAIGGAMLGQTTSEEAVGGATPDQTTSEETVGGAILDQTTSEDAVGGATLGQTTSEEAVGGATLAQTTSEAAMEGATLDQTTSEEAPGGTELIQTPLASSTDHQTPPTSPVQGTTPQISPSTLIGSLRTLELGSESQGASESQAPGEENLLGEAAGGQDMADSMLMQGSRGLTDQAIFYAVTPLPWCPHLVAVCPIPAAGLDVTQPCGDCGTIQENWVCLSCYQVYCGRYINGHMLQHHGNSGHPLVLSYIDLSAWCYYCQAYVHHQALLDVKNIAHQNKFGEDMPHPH

Histone deacetylase 5 [7] = biological target: T4, Histone deacetylase 5 (Homo sapiens, UniProt Q9UQL6); test: (§1) Inhibition of C-terminal His-tagged recombinant human HDAC5 catalytic domain (656 to 1122 residues) expressed in baculovirus infected Sf9 insect cells using a fluorogenic substrate preincubated for 30 mins followed by substrate addition measured after 30 mins by fluorescence based assay
T4 sequence (Q9UQL6 whole entry, the tested form may be a part): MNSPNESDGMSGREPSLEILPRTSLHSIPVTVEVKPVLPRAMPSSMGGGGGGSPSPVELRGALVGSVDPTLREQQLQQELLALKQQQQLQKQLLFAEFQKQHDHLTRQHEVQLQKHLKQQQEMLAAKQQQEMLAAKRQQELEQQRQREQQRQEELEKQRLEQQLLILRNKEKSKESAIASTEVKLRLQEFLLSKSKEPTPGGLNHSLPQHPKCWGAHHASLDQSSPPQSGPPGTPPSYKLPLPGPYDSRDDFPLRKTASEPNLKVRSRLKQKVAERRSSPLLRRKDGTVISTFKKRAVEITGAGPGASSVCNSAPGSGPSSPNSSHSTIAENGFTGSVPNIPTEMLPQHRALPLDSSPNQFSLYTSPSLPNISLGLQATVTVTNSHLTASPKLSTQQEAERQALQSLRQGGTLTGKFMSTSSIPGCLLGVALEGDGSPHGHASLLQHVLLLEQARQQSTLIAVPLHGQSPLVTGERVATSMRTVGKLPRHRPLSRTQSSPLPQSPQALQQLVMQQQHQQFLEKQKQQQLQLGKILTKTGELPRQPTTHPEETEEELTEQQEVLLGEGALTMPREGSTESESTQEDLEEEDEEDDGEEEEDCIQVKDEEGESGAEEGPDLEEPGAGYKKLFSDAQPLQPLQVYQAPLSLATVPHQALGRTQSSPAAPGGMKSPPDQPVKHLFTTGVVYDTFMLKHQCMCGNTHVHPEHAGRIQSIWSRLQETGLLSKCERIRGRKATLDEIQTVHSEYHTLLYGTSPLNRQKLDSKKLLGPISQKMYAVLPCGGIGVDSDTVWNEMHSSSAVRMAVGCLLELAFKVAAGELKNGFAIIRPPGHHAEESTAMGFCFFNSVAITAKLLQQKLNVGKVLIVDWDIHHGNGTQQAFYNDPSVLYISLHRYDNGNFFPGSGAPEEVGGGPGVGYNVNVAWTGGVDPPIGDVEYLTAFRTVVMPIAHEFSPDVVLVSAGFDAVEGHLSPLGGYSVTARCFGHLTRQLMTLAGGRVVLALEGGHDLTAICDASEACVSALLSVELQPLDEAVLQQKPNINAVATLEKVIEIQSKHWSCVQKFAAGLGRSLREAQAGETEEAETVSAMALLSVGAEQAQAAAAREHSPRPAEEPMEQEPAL

Histone deacetylase 5 [8] = biological target: T4, Histone deacetylase 5; test: as §1, with “assay relative to control” for “assay”; details: time 60.0 min
661W [9] = test: Cytoprotective effect against H2O2-induced oxidative stress in mouse 661W cells assessed as increase in acetylated alpha-tubulin level at 10 uM incubated for 24 hrs followed by H2O2 treatment for 3 hrs by immunofluorescence analysis; assay type: functional, cell-based; details: time 27.0 hrs
661W [10] = test: Effect on acetylated alpha-tubulin level in H2O2-induced oxidative stress in mouse 661W cells at 10 uM incubated for 24 hrs followed by H2O2 treatment for 3 hrs by Western blot analysis; assay type: functional, cell-based; details: time 27.0 hrs
661W [11] = test: Effect on acetylated histone H3 level in H2O2-induced oxidative stress in mouse 661W cells at 10 uM incubated for 24 hrs followed by H2O2 treatment for 3 hrs by Western blot analysis; assay type: functional, cell-based; details: time 27.0 hrs
[12] = biological target: T5, Histone deacetylase 8 (Homo sapiens) (UniProt Q9BY41); test: Inhibition of C-terminal His-tagged full-length recombinant human HDAC8 (1 to 377 residues) expressed in Sf9 insect cells using a fluorogenic substrate preincubated for 30 mins followed by substrate addition measured after 30 mins by fluorescence based assay relative to control; details: time 60.0 min
T5 sequence (whole entry): T2 sequence (Q9BY41 whole entry)

Compound	solubility [1] [µM]	remaining at 24 h [2] [%]	logP [3]	other results
Cn1c2c(c3ccccc31)CN(C(=O)NCc1ccc(C(=O)NO)cc1)CC2				inhibition (Histone deacetylase 1 [4]): 41%; pIC50 (Histone deacetylase 1 [5]): < 5.00
CC(C)(C)OC(=O)N1CCC2(CC1)CN(Cc1ccc(C(=O)NO)cc1)c1ccccc12	223 (≈ 97.6 µg/mL)	74	2.5	
CN1CCc2c(c3ccccc3n2Cc2ccc(C(=O)NO)cc2)C1 [TUBASTATIN A]	231 (≈ 77.5 µg/mL)	75	2.02	Activity (661W [9]): Active; Activity (661W [10]): inactive; Activity (661W [11]): inactive
O=C(NO)c1ccc(NC(=O)N2CCc3c(c4ccccc4n3Cc3ccccc3)C2)cc1	141 (≈ 62.1 µg/mL)	90	3.99	
CN1CC2(CCN(Cc3ccc(C(=O)NO)cc3)CC2)c2ccccc21	97 (≈ 34.1 µg/mL)	71	2.1	
O=C(NO)c1ccc(CNC(=S)N2CCc3c(c4ccccc4n3Cc3ccccc3)C2)cc1				pIC50 [6]: < 5.00

The next lines start with results.

solubility [1] [µM]	remaining at 24 h [2] [%]	logP [3]	Compound	other results
295 (≈ 159 µg/mL)	92	4.08	CCN(CC)Cc1ccc(Cn2c3c(c4ccccc42)CN(C(=O)NCc2ccc(C(=O)NO)cc2)CC3)cc1	
285 (≈ 106 µg/mL)	97	2.04	CC1(C)c2ccccc2N(Cc2ccc(C(=O)NO)cc2)C1c1cccnc1 (stereo not drawn)	pIC50 (Histone deacetylase 8): 5.66; pIC50 [6]: 7.39; pIC50 (Histone deacetylase 5 [7]): < 5.00; inhibition (Histone deacetylase 5 [8]): 14%; pIC50 (Histone deacetylase 1 [5]): 5.27
		2.57	CC(/C=C/C(=O)NO)=C\[C@@H](C)C(=O)c1ccc(N(C)C)cc1 [TRICHOSTATIN]	
156 (≈ 73.6 µg/mL)	64	4.2	O=C(NO)c1ccc(COC(=O)N2CCC3(CC2)CN(Cc2ccccc2)c2ccccc23)cc1	
227 (≈ 86.1 µg/mL)	90	3.2	Cn1c2c(c3ccccc31)CN(C(=O)OCc1ccc(C(=O)NO)cc1)CC2	pIC50 (Histone deacetylase 8): < 5.00; inhibition [12]: 38%
200 (≈ 67.1 µg/mL)	94	1.97	Cn1c2c(c3ccccc31)CN(Cc1ccc(C(=O)NO)cc1)CC2	inhibition (Histone deacetylase 1 [4]): 43%; pIC50 (Histone deacetylase 1 [5]): < 5.00
